Source: patent US7402606B2, “Derivatives of 1-(oxoaminoacetyl) pentylcarbamate as cathepsin K inhibitors for the treatment of bone loss” (SmithKline Beecham Corporation, priority 2002, dated 2008)

Target: T1, human cathepsin K (Homo sapiens, UniProt P43235)
T1 construct: The proform of cathepsin K was converted to mature cathepsin K by brief exposure to pH 4; made in house; host or cells: baculovirus; Trichoplusia ni High Five cells (virus raised in Sf-9)
T1 sequence (P43235 115-329): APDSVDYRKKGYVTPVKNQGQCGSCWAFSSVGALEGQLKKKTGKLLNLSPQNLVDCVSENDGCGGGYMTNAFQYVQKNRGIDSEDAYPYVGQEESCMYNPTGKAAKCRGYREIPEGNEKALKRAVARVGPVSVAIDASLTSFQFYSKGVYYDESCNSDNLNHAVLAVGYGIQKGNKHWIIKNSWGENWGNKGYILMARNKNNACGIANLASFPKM
Experiment: Cathepsin K inhibition assay, human recombinant enzyme, fluorogenic substrate Cbz-Phe-Arg-AMC
Assay type: biochemical
Details: Table 1, human cathepsin K; read-out: h Cat K IC50
Outline: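 Recombinant human cathepsin K (baculovirus/insect-cell proform, activated at pH 4 with 5 mM L-cysteine) assayed with 10 μM Cbz-Phe-Arg-AMC, 10% DMSO, 30 °C.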

| IC50 [nM] | SMILES |
| --- | --- |
| 10 to 100 | CCCC[C@H](NC(=O)O[C@@H]1CN(C(=O)Nc2ccc(C#N)cc2)CC1(C)C)C(=O)C(=O)N[C@H](C)c1ccccc1 [Example 69, (3S)-1-[(4-Cyanoanilino)carbonyl]-4,4-dimethylpyrrolidinyl (1S)-1-(oxo{[(1R)-1-phenylethyl]amino}acetyl)pentylcarbamate] |
| 10 to 100 | CCCC[C@H](NC(=O)O[C@@H]1CN(C(=O)OCc2cc(C)on2)CC1(C)C)C(=O)C(=O)N[C@H](C)c1ccccc1 [Example 52, (5-methyl-3-isoxazolyl)methyl (4S)-3,3-dimethyl-4-[({[(1S)-1-(oxo{[(1R)-1-phenylethyl]amino}acetyl)pentyl]amino}carbonyl)oxy]-1-pyrrolidinecarboxylate] |
| 10 to 100 | CCCC[C@H](NC(=O)O[C@@H]1CN(C(=O)N2CCOCC2)CC1(C)C)C(=O)C(=O)N[C@H](C)c1ccccc1 [Example 73, (3S)-4,4-Dimethyl-1-(4-morpholinylcarbonyl)pyrrolidinyl (1S)-1-(oxo{[(1R)-1-phenylethyl]amino}acetyl)pentylcarbamate] |
| 10 to 100 | CCCC[C@H](NC(=O)O[C@@H]1CN(C(=O)c2ccccc2)CC1(C)C)C(=O)C(=O)N[C@H](C)c1ccccc1 [Example 9] |
| 1 to 10 | CCCC[C@H](NC(=O)O[C@@H]1CN(C(=O)Cc2ccccc2)CC1(C)C)C(=O)C(=O)N[C@H](C)c1ccccc1 [Example 11, (3S)-4,4-Dimethyl-1-(phenylacetyl)pyrrolidinyl (1S)-1-(oxo{[(1R)-1-phenylethyl]amino}acetyl)pentylcarbamate] |
| 10 to 100 | CCCC[C@H](NC(=O)O[C@@H]1CN(C(=O)c2snnc2C)CC1(C)C)C(=O)C(=O)N[C@H](C)c1ccccc1 [Example 13, (3S)-4,4-Dimethyl-1-[(4-methyl-1,2,3-thiadiazol-5-yl)carbonyl]pyrrolidinyl (1S)-1-(oxo {[(1R)-1-phenylethyl]amino}acetyl)pentylcarbamate] |
| 1 to 10 | CCCC[C@H](NC(=O)O[C@@H]1CN(C(=O)Nc2ccccc2)CC1(C)C)C(=O)C(=O)N[C@H](C)c1ccccc1 [Example 63, (3S)-1-(Anilinocarbonyl)-4,4-dimethylpyrrolidinyl (1S)-1-(oxo{[(1R)-1-phenylethyl]amino}acetyl)pentylcarbamate] |
| 1 to 10 | CCCC[C@H](NC(=O)O[C@@H]1CN(C(=O)c2cc3ccccc3s2)CC1(C)C)C(=O)C(=O)N[C@H](C)c1ccccc1 [Example 17, (3S)-1-(1-Benzothien-2-ylcarbonyl)-4,4-dimethylpyrrolidinyl (1S)-1-(oxo{[(1R)-1-phenylethyl]amino}acetyl)pentylcarbamate] |
| 10 to 100 | CCCC[C@H](NC(=O)O[C@@H]1CN(C(=O)c2cnc3ccccc3c2)CC1(C)C)C(=O)C(=O)N[C@H](C)c1ccccc1 [Example 29, (3S)-4,4-Dimethyl-(3-quinolinylcarbonyl)pyrrolidinyl 1-(oxo{[(1R)-1-phenylethyl]amino}acetyl)pentylcarbamate] |
| 10 to 100 | CCCC[C@H](NC(=O)O[C@@H]1CN(C(=O)NC2CCCCC2)CC1(C)C)C(=O)C(=O)N[C@H](C)c1ccccc1 [Example 68, (3S)-1-[(Cyclohexylamino)carbonyl]-4,4-dimethylpyrrolidinyl (1S)-1-(oxo{[(1R)-1-phenylethyl]amino}acetyl)pentylcarbamate] |
| 1 to 10 | CCCC[C@H](NC(=O)O[C@@H]1CN(C(=O)OCCc2scnc2C)CC1(C)C)C(=O)C(=O)N[C@H](C)c1ccccc1 [Example 51, 2-(4-Methyl-1,3-thiazol-5-yl)ethyl (4S)-3,3-dimethyl-4-[({[(1S)-1-(oxo {[(1R)-1-phenylethyl]amino}acetyl)pentyl]amino}carbonyl)oxy]-1-pyrrolidinecarboxylate] |
| 1 to 10 | CCCC[C@H](NC(=O)O[C@@H]1CN(C(=O)c2ccno2)CC1(C)C)C(=O)C(=O)N[C@H](C)c1ccccc1 [Example 12] |
| 1 to 10 | CCCC[C@H](NC(=O)O[C@@H]1CN(C(=O)c2ccc3[nH]nnc3c2)CC1(C)C)C(=O)C(=O)N[C@H](C)c1ccccc1 [Example 22, (3S)-1-(1H-1,2,3-Benzotriazol-5-ylcarbonyl)-4,4-dimethylpyrrolidinyl (1S)-1-(oxo{[(1R)-1-phenylethyl]amino}acetyl)pentylcarbamate] |
| 1 to 10 | CCCC[C@H](NC(=O)O[C@@H]1CN(C(=O)Cc2cc(C)no2)CC1(C)C)C(=O)C(=O)N[C@H](C)c1ccccc1 [Example 35, (3S)-4,4-Dimethyl-1-[(3-methyl-5-isoxazolyl)acetyl]pyrrolidinyl (1S)-1-(oxo{[(1R)-1-phenylethyl]amino}acetyl)pentylcarbamate] |

The next lines start with the molecule.

| SMILES | IC50 [nM] |
| --- | --- |
| CNC(=O)NCCCC[C@H](NC(=O)O[C@@H]1C(=O)OCC1(C)C)C(=O)C(=O)N[C@H](C)c1ccccc1 [Example 2, (3S)-4,4-dimethyl-2-oxotetrahydro-3-furanyl (1S)-5-{[(methylamino)carbonyl]amino}-1-(oxo{[(1R)-1-phenylethyl]amino}acetyl)pentylcarbamate] | 1 to 10 |
| CCCC[C@H](NC(=O)O[C@@H]1CN(C(=O)Oc2ccc(-c3csnn3)cc2)CC1(C)C)C(=O)C(=O)N[C@H](C)c1ccccc1 [Example 61, 4-(1,2,3-Thiadiazol-4-yl)phenyl (4S)-3,3-dimethyl-4-[({[(1S)-1-(oxo{[(1R)-1-phenylethyl]amino}acetyl)pentyl]amino}carbonyl)oxy]-1-pyrrolidinecarboxylate] | 10 to 100 |
| CCCC[C@H](NC(=O)O[C@@H]1CN(C(=O)Cc2ccc(C(C)(C)C)cc2)CC1(C)C)C(=O)C(=O)N[C@H](C)c1ccccc1 [Example 25, (3S)-1-[(4-tert-Butylphenyl)acetyl]-4,4-dimethylpyrrolidinyl (1S)-1-(oxo{[(1R)-1-phenylethyl]amino}acetyl)pentylcarbamate] | 10 to 100 |
| CCCC[C@H](NC(=O)O[C@@H]1CN(C(=O)c2ccc(-c3ccccc3)cc2)CC1(C)C)C(=O)C(=O)N[C@H](C)c1ccccc1 [Example 20] | 1 to 10 |
| CCCC[C@H](NC(=O)O[C@@H]1CN(C(=O)OCc2noc(-c3cccs3)n2)CC1(C)C)C(=O)C(=O)N[C@H](C)c1ccccc1 [Example 55, [5-(2-Thienyl)-1,2,4-oxadiazol-3-yl]methyl (4S)-3,3-dimethyl-4-[({[(1S)-1-(oxo{[(1R)-1-phenylethyl]amino}acetyl)pentyl]amino}carbonyl)oxy]-1-pyrrolidinecarboxylate] | 10 to 100 |
| CCCC[C@H](NC(=O)O[C@@H]1CN(S(=O)(=O)c2ccc3c(c2)OCO3)CC1(C)C)C(=O)C(=O)N[C@H](C)c1ccccc1 [Example 79, (3S)-1-(1,3-Benzodioxol-5-ylsulfonyl)-4,4-dimethylpyrrolidinyl (1S)-1-(oxo{[(1R)-1-phenylethyl]amino}acetyl)pentylcarbamate] | 10 to 100 |
| CCCC[C@H](NC(=O)O[C@@H]1CN(S(=O)(=O)c2ccccc2)CC1(C)C)C(=O)C(=O)N[C@H](C)c1ccccc1 [Example 77, (3S)-4,4-Dimethyl-1-(phenylsulfonyl)pyrrolidinyl (1S)-1-(oxo{[(1R)-1-phenylethyl]amino}acetyl)pentylcarbamate] | 1 to 10 |
| CCCC[C@H](NC(=O)O[C@@H]1CN(C(=O)OCc2ccc(-c3ccccc3)cc2)CC1(C)C)C(=O)C(=O)N[C@H](C)c1ccccc1 [Example 40, [1,1′-biphenyl]-4-ylmethyl (4S)-3,3-dimethyl-4-[({[(1S)-1-(oxo{[(1R)-1-phenylethyl]amino}acetyl)pentyl]amino}carbonyl)oxy]-1-pyrrolidinecarboxylate] | 1 to 10 |
| CCCC[C@H](NC(=O)O[C@@H]1CN(C(=O)OCCc2ccccc2)CC1(C)C)C(=O)C(=O)N[C@H](C)c1ccccc1 [Example 45, 2-Phenylethyl (4S)-3,3-dimethyl-4-[({[(1S)-1-(oxo {[(1R)-1-phenylethyl]amino}acetyl)pentyl]amino}carbonyl)oxy]-1-pyrrolidinecarboxylate] | 10 to 100 |
| CCCC[C@H](NC(=O)O[C@@H]1CN(C(=O)NC(=O)c2ccccc2)CC1(C)C)C(=O)C(=O)N[C@H](C)c1ccccc1 [Example 75, (3S)-1-[(Benzoylamino)carbonyl]-4,4-dimethylpyrrolidinyl (1S)-1-(oxo{[(1R)-1-phenylethyl]amino}acetyl)pentylcarbamate] | 10 to 100 |
| CCCC[C@H](NC(=O)O[C@@H]1CN(C(=O)Cc2ccc(-c3ccccc3)cc2)CC1(C)C)C(=O)C(=O)N[C@H](C)c1ccccc1 [Example 30, (3S)-1-([1,1′-Biphenyl]-4-ylacetyl)-4,4-dimethylpyrrolidinyl (1S)-1-(oxo {[(1R)-1-phenylethyl]amino}acetyl)pentylcarbamate] | 10 to 100 |
| CCCC[C@H](NC(=O)O[C@@H]1CN(C(=O)OCc2ccccc2)CC1(C)C)C(=O)C(=O)N[C@H](C)c1ccccc1 [Example 44, Benzyl (4S)-3,3-dimethyl-4-[({[(1S)-1-(oxo{[(1R)-1-phenylethyl]amino}acetyl)pentyl]amino}carbonyl)oxy]-1-pyrrolidinecarboxylate] | 10 to 100 |
| CCCC[C@H](NC(=O)O[C@@H]1CN(C(=O)OCc2cn(-c3ccccc3)nn2)CC1(C)C)C(=O)C(=O)N[C@H](C)c1ccccc1 [Example 46, (1-Phenyl-1H-1,2,3-triazol-4-yl)methyl (4S)-3,3-dimethyl-4-[({[(1S)-1-(oxo{[(1R)-1-phenylethyl]amino}acetyl)pentyl]amino}carbonyl)oxy]-1-pyrrolidinecarboxylate] | 1 to 10 |
| CCCC[C@H](NC(=O)O[C@@H]1CN(C(=O)OCc2c(-c3c(Cl)cccc3Cl)noc2C)CC1(C)C)C(=O)C(=O)N[C@H](C)c1ccccc1 [Example 53, [3-(2,6-Dichlorophenyl)-5-methyl-4-isoxazolyl]methyl (4S)-3,3-dimethyl-4-[({[(1S)-1-(oxo{[(1R)-1-phenylethyl]amino}acetyl)pentyl]amino}carbonyl)oxy]-1-pyrrolidinecarboxylate] | 1 to 10 |
